Where a SMILES comes first, the peptide text is derived from it. Bridges are numbered along the chain shown (N, C = ends). [ ]: non-standard residue; d: D form. ξ: configuration not given here. Hyp = O=C(O)[C@@H]1C[C@@H](O)CN1; NMeNle = CCCC[C@H](NC)C(=O)O; hSer = N[C@@H](CCO)C(=O)O; NMeA = CN[C@@H](C)C(=O)O; Orn = NCCC[C@H](N)C(=O)O; Dab = NCC[C@H](N)C(=O)O; Dap = NC[C@H](N)C(=O)O; ξC = NC(CS)C(=O)O; Sar = CNCC(=O)O
Target: T1, Human PD-L1/PD-1 (Homo sapiens, UniProt Q9NZQ7)
T1 construct: TVMV protease cleavage site (C); made in house; host or cells: HEK293T cells
T1 sequence (Q9NZQ7 with tags, fused parts or gaps): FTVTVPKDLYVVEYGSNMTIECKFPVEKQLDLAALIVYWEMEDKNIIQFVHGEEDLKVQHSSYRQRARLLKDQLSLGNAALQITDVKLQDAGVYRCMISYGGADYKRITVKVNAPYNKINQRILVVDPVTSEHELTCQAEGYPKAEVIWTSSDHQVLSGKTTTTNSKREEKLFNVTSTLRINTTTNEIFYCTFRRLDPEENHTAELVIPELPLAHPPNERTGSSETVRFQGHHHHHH
Test: HTRF Human PD-L1/PD-1 binding assay (PD-1-Ig/PD-L1-His)
Conditions: PD-L1-His 10 nM, PD-1-Ig 20 nM; class symbol; read-out: HTRF Human PD-L1/PD-1 Binding Assay IC50 Range
Outline: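 HTRF read-out (665/620 nm ratio) after 30 min equilibration with Eu-cryptate anti-Ig mAb (1 nM) and APC anti-His mAb (20 nM). Peptides preincubated 15 min with PD-L1-His (10 nM), then PD-1-Ig (20 nM) added for 15 min.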

| SMILES | IC50 |
| --- | --- |
| CCCC[C@H]1C(=O)N[C@@H](CC(N)=O)C(=O)N2CCC[C@H]2C(=O)N[C@@H](CO)C(=O)N[C@@H](CCO)C(=O)N2CCC[C@H]2C(=O)N[C@@H](Cc2c[nH]c3ccccc23)C(=O)N[C@@H](CCN)C(=O)N[C@@H](Cc2c[nH]c3ccccc23)C(=O)N(C)[C@@H](C)C(=O)N(C)[C@@H](C)C(=O)N[C@@H](CCCNC(=N)N)C(=O)NC(C(=O)NCC(N)=O)CSCC(=O)N[C@@H](Cc2ccc(O)cc2)C(=O)N1C (stereo partly shown) [Example 10203] ({CH2CO}-Y[NMeNle]NPS[hSer]PW[Dab]W[NMeA][NMeA]R[ξC]G-NH2; thioether N-14) | 1 to 10 µM |
| CCCC[C@H]1C(=O)N[C@@H](CC(N)=O)C(=O)N2CCC[C@H]2C(=O)N[C@@H](CO)C(=O)N[C@@H](CCO)C(=O)N2CCC[C@H]2C(=O)N[C@@H](Cc2c[nH]c3ccccc23)C(=O)N[C@@H](CCCN)C(=O)N[C@@H](Cc2c[nH]c3ccccc23)C(=O)N(C)[C@@H](C)C(=O)N(C)CC(=O)N[C@@H](CCCNC(=N)N)C(=O)NC(C(=O)NCC(N)=O)CSCC(=O)N[C@@H](Cc2ccc(O)cc2)C(=O)N1C (stereo partly shown) [Example 10204] ({CH2CO}-Y[NMeNle]NPS[hSer]PW[Orn]W[NMeA][Sar]R[ξC]G-NH2; thioether N-14) | 1 to 10 µM |
| CCCC[C@H]1C(=O)N[C@@H](CC(N)=O)C(=O)N2CCC[C@H]2C(=O)N[C@@H](CO)C(=O)N[C@@H](CCO)C(=O)N2C[C@H](O)C[C@H]2C(=O)N[C@@H](Cc2c[nH]c3ccccc23)C(=O)N[C@@H](CN)C(=O)N[C@@H](Cc2c[nH]c3ccccc23)C(=O)N(C)[C@@H](C)C(=O)N(C)CC(=O)N[C@@H](CCCNC(=N)N)C(=O)NC(C(=O)NCC(N)=O)CSCC(=O)N[C@@H](Cc2ccc(O)cc2)C(=O)N1C (stereo partly shown) [Example 10205] ({CH2CO}-Y[NMeNle]NPS[hSer][Hyp]W[Dap]W[NMeA][Sar]R[ξC]G-NH2; thioether N-14) | 1 to 10 µM |
| CCCC[C@H]1C(=O)N[C@@H](CC(N)=O)C(=O)N2CCC[C@H]2C(=O)N[C@@H](CO)C(=O)N[C@@H](CCO)C(=O)N2C[C@H](O)C[C@H]2C(=O)N[C@@H](Cc2c[nH]c3ccccc23)C(=O)N[C@@H](CCN)C(=O)N[C@@H](Cc2c[nH]c3ccccc23)C(=O)N(C)[C@@H](C)C(=O)N(C)CC(=O)N[C@@H](CCCNC(=N)N)C(=O)NC(C(=O)NCC(N)=O)CSCC(=O)N[C@@H](Cc2ccc(O)cc2)C(=O)N1C (stereo partly shown) [Example 10206] ({CH2CO}-Y[NMeNle]NPS[hSer][Hyp]W[Dab]W[NMeA][Sar]R[ξC]G-NH2; thioether N-14) | 1 to 10 µM |
| CCCC[C@H]1C(=O)N[C@@H](CC(N)=O)C(=O)N2CCC[C@H]2C(=O)N[C@@H](CO)C(=O)N[C@@H](CCO)C(=O)N2C[C@H](O)C[C@H]2C(=O)N[C@@H](Cc2c[nH]c3ccccc23)C(=O)N[C@@H](CCCN)C(=O)N[C@@H](Cc2c[nH]c3ccccc23)C(=O)N(C)[C@@H](C)C(=O)N(C)CC(=O)N[C@@H](CCCNC(=N)N)C(=O)NC(C(=O)NCC(N)=O)CSCC(=O)N[C@@H](Cc2ccc(O)cc2)C(=O)N1C (stereo partly shown) [Example 10207] ({CH2CO}-Y[NMeNle]NPS[hSer][Hyp]W[Orn]W[NMeA][Sar]R[ξC]G-NH2; thioether N-14) | 1 to 10 µM |
| CCCC[C@H]1C(=O)N[C@@H](CC(N)=O)C(=O)N2CCC[C@H]2C(=O)N[C@@H](CO)C(=O)N[C@@H](CCO)C(=O)N2CCC[C@H]2C(=O)N[C@@H](Cc2c[nH]c3ccccc23)C(=O)N[C@@H](CO)C(=O)N[C@@H](Cc2c[nH]c3ccccc23)C(=O)N(C)[C@@H](C)C(=O)N(C)[C@@H](C)C(=O)N[C@@H](CCCCN)C(=O)NC(C(=O)NCC(N)=O)CSCC(=O)N[C@@H](Cc2ccc(O)cc2)C(=O)N1C (stereo partly shown) [Example 10208] ({CH2CO}-Y[NMeNle]NPS[hSer]PWSW[NMeA][NMeA]K[ξC]G-NH2; thioether N-14) | 1 to 10 µM |
| CCCC[C@H]1C(=O)N[C@@H](CC(N)=O)C(=O)N2CCC[C@H]2C(=O)N[C@@H](CO)C(=O)N[C@@H](CCO)C(=O)N2CCC[C@H]2C(=O)N[C@@H](Cc2c[nH]c3ccccc23)C(=O)N[C@@H](CO)C(=O)N[C@@H](Cc2c[nH]c3ccccc23)C(=O)N(C)[C@@H](C)C(=O)N(C)[C@@H](C)C(=O)N[C@@H](CCC(=O)O)C(=O)NC(C(=O)NCC(N)=O)CSCC(=O)N[C@@H](Cc2ccc(O)cc2)C(=O)N1C (stereo partly shown) [Example 10209] ({CH2CO}-Y[NMeNle]NPS[hSer]PWSW[NMeA][NMeA]E[ξC]G-NH2; thioether N-14) | 1 to 10 µM |
| CCCC[C@H]1C(=O)N[C@@H](CC(N)=O)C(=O)N2CCC[C@H]2C(=O)N[C@@H](CO)C(=O)N[C@@H](CCO)C(=O)N2CCC[C@H]2C(=O)N[C@@H](Cc2c[nH]c3ccccc23)C(=O)N[C@@H](CO)C(=O)N[C@@H](Cc2c[nH]c3ccccc23)C(=O)N(C)[C@@H](C)C(=O)N(C)[C@@H](C)C(=O)N[C@@H](CCCN)C(=O)NC(C(=O)NCC(N)=O)CSCC(=O)N[C@@H](Cc2ccc(O)cc2)C(=O)N1C (stereo partly shown) [Example 10210] ({CH2CO}-Y[NMeNle]NPS[hSer]PWSW[NMeA][NMeA][Orn][ξC]G-NH2; thioether N-14) | 1 to 10 µM |
| CCCC[C@H]1C(=O)N[C@@H](CC(N)=O)C(=O)N2CCC[C@H]2C(=O)N[C@@H](CO)C(=O)N[C@@H](CCO)C(=O)N2C[C@H](O)C[C@H]2C(=O)N[C@@H](Cc2c[nH]c3ccccc23)C(=O)N[C@@H](CO)C(=O)N[C@@H](Cc2c[nH]c3ccccc23)C(=O)N(C)[C@@H](C)C(=O)N(C)[C@@H](C)C(=O)N[C@@H](CCCCN)C(=O)NC(C(=O)NCC(N)=O)CSCC(=O)N[C@@H](Cc2ccc(O)cc2)C(=O)N1C (stereo partly shown) [Example 10211] ({CH2CO}-Y[NMeNle]NPS[hSer][Hyp]WSW[NMeA][NMeA]K[ξC]G-NH2; thioether N-14) | 1 to 10 µM |
| CCCC[C@H]1C(=O)N[C@@H](CC(N)=O)C(=O)N2CCC[C@H]2C(=O)N[C@@H](CO)C(=O)N[C@@H](CCO)C(=O)N2C[C@H](O)C[C@H]2C(=O)N[C@@H](Cc2c[nH]c3ccccc23)C(=O)N[C@@H](CO)C(=O)N[C@@H](Cc2c[nH]c3ccccc23)C(=O)N(C)[C@@H](C)C(=O)N(C)[C@@H](C)C(=O)N[C@@H](CCC(=O)O)C(=O)NC(C(=O)NCC(N)=O)CSCC(=O)N[C@@H](Cc2ccc(O)cc2)C(=O)N1C (stereo partly shown) [Example 10212] ({CH2CO}-Y[NMeNle]NPS[hSer][Hyp]WSW[NMeA][NMeA]E[ξC]G-NH2; thioether N-14) | 1 to 10 µM |
| CCCC[C@H]1C(=O)N[C@@H](CC(N)=O)C(=O)N2CCC[C@H]2C(=O)N[C@@H](CO)C(=O)N[C@@H](CCO)C(=O)N2C[C@H](O)C[C@H]2C(=O)N[C@@H](Cc2c[nH]c3ccccc23)C(=O)N[C@@H](CO)C(=O)N[C@@H](Cc2c[nH]c3ccccc23)C(=O)N(C)[C@@H](C)C(=O)N(C)[C@@H](C)C(=O)N[C@@H](CCCN)C(=O)NC(C(=O)NCC(N)=O)CSCC(=O)N[C@@H](Cc2ccc(O)cc2)C(=O)N1C (stereo partly shown) [Example 10213] ({CH2CO}-Y[NMeNle]NPS[hSer][Hyp]WSW[NMeA][NMeA][Orn][ξC]G-NH2; thioether N-14) | 1 to 10 µM |
| CCCC[C@H]1C(=O)N[C@@H](CC(N)=O)C(=O)N2CCC[C@H]2C(=O)N[C@@H](CO)C(=O)N[C@@H](CCO)C(=O)N2CCC[C@H]2C(=O)N[C@@H](Cc2c[nH]c3ccccc23)C(=O)N[C@@H](CCO)C(=O)N[C@@H](Cc2c[nH]c3ccccc23)C(=O)N(C)[C@@H](C)C(=O)N(C)[C@@H](C)C(=O)N[C@@H](CCCCN)C(=O)NC(C(=O)NCC(N)=O)CSCC(=O)N[C@@H](Cc2ccc(O)cc2)C(=O)N1C (stereo partly shown) [Example 10214] ({CH2CO}-Y[NMeNle]NPS[hSer]PW[hSer]W[NMeA][NMeA]K[ξC]G-NH2; thioether N-14) | 1 to 10 µM |
| CCCC[C@H]1C(=O)N[C@@H](CC(N)=O)C(=O)N2CCC[C@H]2C(=O)N[C@@H](CO)C(=O)N[C@@H](CCO)C(=O)N2CCC[C@H]2C(=O)N[C@@H](Cc2c[nH]c3ccccc23)C(=O)N[C@@H](CCO)C(=O)N[C@@H](Cc2c[nH]c3ccccc23)C(=O)N(C)[C@@H](C)C(=O)N(C)[C@@H](C)C(=O)N[C@@H](CCC(=O)O)C(=O)NC(C(=O)NCC(N)=O)CSCC(=O)N[C@@H](Cc2ccc(O)cc2)C(=O)N1C (stereo partly shown) [Example 10215] ({CH2CO}-Y[NMeNle]NPS[hSer]PW[hSer]W[NMeA][NMeA]E[ξC]G-NH2; thioether N-14) | 1 to 10 µM |
| CCCC[C@H]1C(=O)N[C@@H](CC(N)=O)C(=O)N2CCC[C@H]2C(=O)N[C@@H](CO)C(=O)N[C@@H](CCO)C(=O)N2CCC[C@H]2C(=O)N[C@@H](Cc2c[nH]c3ccccc23)C(=O)N[C@@H](CCO)C(=O)N[C@@H](Cc2c[nH]c3ccccc23)C(=O)N(C)[C@@H](C)C(=O)N(C)[C@@H](C)C(=O)N[C@@H](CCCN)C(=O)NC(C(=O)NCC(N)=O)CSCC(=O)N[C@@H](Cc2ccc(O)cc2)C(=O)N1C (stereo partly shown) [Example 10216] ({CH2CO}-Y[NMeNle]NPS[hSer]PW[hSer]W[NMeA][NMeA][Orn][ξC]G-NH2; thioether N-14) | 1 to 10 µM |
| CCCC[C@H]1C(=O)N[C@@H](CC(N)=O)C(=O)N2CCC[C@H]2C(=O)N[C@@H](CO)C(=O)N[C@@H](CCO)C(=O)N2C[C@H](O)C[C@H]2C(=O)N[C@@H](Cc2c[nH]c3ccccc23)C(=O)N[C@@H](CCO)C(=O)N[C@@H](Cc2c[nH]c3ccccc23)C(=O)N(C)[C@@H](C)C(=O)N(C)[C@@H](C)C(=O)N[C@@H](CCCCN)C(=O)NC(C(=O)NCC(N)=O)CSCC(=O)N[C@@H](Cc2ccc(O)cc2)C(=O)N1C (stereo partly shown) [Example 10217] ({CH2CO}-Y[NMeNle]NPS[hSer][Hyp]W[hSer]W[NMeA][NMeA]K[ξC]G-NH2; thioether N-14) | 1 to 10 µM |
| CCCC[C@H]1C(=O)N[C@@H](CC(N)=O)C(=O)N2CCC[C@H]2C(=O)N[C@@H](CO)C(=O)N[C@@H](CCO)C(=O)N2C[C@H](O)C[C@H]2C(=O)N[C@@H](Cc2c[nH]c3ccccc23)C(=O)N[C@@H](CCO)C(=O)N[C@@H](Cc2c[nH]c3ccccc23)C(=O)N(C)[C@@H](C)C(=O)N(C)[C@@H](C)C(=O)N[C@@H](CCC(=O)O)C(=O)NC(C(=O)NCC(N)=O)CSCC(=O)N[C@@H](Cc2ccc(O)cc2)C(=O)N1C (stereo partly shown) [Example 10218] ({CH2CO}-Y[NMeNle]NPS[hSer][Hyp]W[hSer]W[NMeA][NMeA]E[ξC]G-NH2; thioether N-14) | 1 to 10 µM |

Reference: patent US10538555B2, “Macrocyclic inhibitors of the PD-1/PD-L1 and CD80(B7-1)/PD-L1 protein/protein interactions” (BRISTOL-MYERS SQUIBB COMPANY, priority 2014, dated 2020)
